The source of these data is US10023543B2 (CELGENE QUANTICEL RESEARCH, INC., priority 2014, dated 2018).

Counter-ions that a name gives are not always drawn. Like-named read-outs stand apart in the source and are kept apart here.

One test deals with THP-1 (AML) cells. Briefly: LSD1 CD11b cellular assay (flow cytometry). Format: cell-based. To be noted: Homo sapiens, THP-1, 96 h. A general note: Flow cytometry measures light scatter and fluorescence of single cells or particles in a stream.
For the next test, the system named is Kasumi-1. Briefly: Kasumi-1 AML cell line proliferation assay (Cell-MTS assay). It counts as cell-based. Particulars: Homo sapiens, 168 hours. The text has this: Colorimetric cellular assay to assess the ability of LSD-1 small molecule inhibitors to effect the proliferation of the established AML cancer cell line Kasumi-1.
This Cell-MTS assay is a 7-day plate based colorimetric assay which quantifies the amount of newly generated NADH in the presence and absence of test compound. These NADH levels are used as a proxy for the quantification of cancer cell proliferation.
The established cancer cell line Kasumi-1 with a verified p53 mutation were purchased from American Type Culture Collection (ATCC) and routinely passaged according to ATCC published protocols. For routine assay these cells were seeded at a density of 20,000 cells per 96-well. […] At the end of this compound incubation period, 80 μl of media is removed and 20 μL of CellTiter 96® AQueous Non-Radioactive Cell Proliferation Assay solution (Promega) is added. The cells are incubated until the OD490 is >0.6. IC50 values are calculated using the IDBS XLfit software package and include background subtracted OD490 values and normalization to DMSO controls.
In general terms: Tetrazolium assays rely on reduction of a dye to a coloured formazan, in cell work by metabolically active cells.

Another test addresses full-length human LSD1 (Homo sapiens (Human), UniProt O60341). Briefly: In vitro enzyme inhibition assay LSD-1 (TR-FRET). Format: biochemical. To be noted: H3K4me1-biotin peptide. In general terms: TR-FRET usually uses a lanthanide donor and a delayed reading to cut background.
The mark [1] stands for this setting: CD11b expressing cells, 4 days, read-out: THP-1 IC50.

Method for full-length human LSD1: This assay determines the ability of a test compound to inhibit LSD1 demethylase activity.
The enzymatic assay of LSD1 activity is based on Time Resolved-Fluorescence Resonance Energy Transfer (TR-FRET) detection.
Enzymatic reaction is terminated within 15 minutes if 0.5 LSD1 enzyme is used in the plate.
The ability of the compounds disclosed herein to inhibit LSD1 activity was quantified and the respective IC50 value was determined.

Consider `Cn1c(N2CCC(N)CC2)nc(-c2ccc(C#N)c(F)c2)c(-c2ccc3c(cnn3C)c2)c1=O` [Example 35, 4-[2-(4-amino-piperidin-1-yl)-1-methyl-5-(1-methyl-1H-indazol-5-yl)-6-oxo-1,6-dihydro-pyrimidin-4-yl]-2-fluoro-benzonitrile], for which the values for the IC50 in the test with THP-1 (AML) cells (setting [1]) and in the test with Kasumi-1 were less than 0.1 µM and less than 100 nM, respectively.

In the case of `CNC1CCN(c2nc(-c3ccc(C#N)c(F)c3)c(-c3ccc4nn(C)cc4c3)c(=O)n2C)CC1` [Example 65, 2-fluoro-4-[1-methyl-2-(4-methylamino-piperidin-1-yl)-5-(2-methyl-2H-indazol-5-yl)-6-oxo-1,6-dihydro-pyrimidin-4-yl]-benzonitrile], the IC50 in the test on THP-1 (AML) cells (setting [1]) is less than 0.1 µM; with Kasumi-1 it was less than 100 nM.

On to `Cn1c(N2CCC(N)CC2)nc(-c2ccc(C#N)cc2)c(-c2cnn(CC(F)(F)F)c2)c1=O` [Example 36, 4-{2-(4-amino-piperidin-1-yl)-1-methyl-6-oxo-5-[1-(2,2,2-trifluoro-ethyl)-1H-pyrazol-4-yl]-1,6-dihydro-pyrimidin-4-yl}-benzonitrile], for which the results for the IC50 with THP-1 (AML) cells (setting [1]) and in the test with Kasumi-1 were less than 0.1 µM and less than 100 nM, respectively.

On to `Cc1ccc(-c2c(-c3ccc(C#N)cc3)nc(N3CCC(N)CC3)n(C)c2=O)cn1` [Example 4, 4-[2-(4-amino-piperidin-1-yl)-1-methyl-5-(6-methyl-pyridin-3-yl)-6-oxo-1,6-dihydro-pyrimidin-4-yl]-benzonitrile], for which the IC50 was less than 0.1 µM with THP-1 (AML) cells (setting [1]) and 100 to 1000 nM in the test with Kasumi-1.

Turning to `Cc1ccc(-c2c(-c3ccc(C#N)cc3)nc(N3CCC(N)CC3)n(C)c2=O)cc1` [Example 1, 4-(2-(4-aminopiperidin-1-yl)-1-methyl-6-oxo-5-p-tolyl-1,6-dihydropyrimidin-4-yl)benzonitrile, HCl salt], the IC50 is less than 0.1 µM in the test with THP-1 (AML) cells (read-out: THP-1 IC50 (μM)) and less than 100 nM with Kasumi-1.

On to `COc1ccc(-c2c(-c3ccc(C#N)c(F)c3)nc(N3CCC(N)CC3)n(C)c2=O)cn1` [Example 8, 4-[2-(4-amino-piperidin-1-yl)-5-(6-methoxy-pyridin-3-yl)-1-methyl-6-oxo-1,6-dihydro-pyrimidin-4-yl]-2-fluoro-benzonitrile], for which the IC50 in the test with THP-1 (AML) cells (setting [1]) is less than 0.1 µM; in the test on Kasumi-1 it was less than 100 nM.

As to `Cc1ccc(-c2c(-c3ccc(C#N)c(F)c3)nc(N3CCC(N)CC3)n(C)c2=O)cn1` [Example 9], the IC50 was less than 0.1 µM in the test on THP-1 (AML) cells (setting [1]) and less than 100 nM with Kasumi-1.

With `CN(C)C1CCN(c2nc(-c3ccc(C#N)c(F)c3)c(-c3ccc4nn(C)cc4c3)c(=O)n2C)CC1` [Example 71, 4-[2-(4-dimethylamino-piperidin-1-yl)-1-methyl-5-(2-methyl-2H-indazol-5-yl)-6-oxo-1,6-dihydro-pyrimidin-4-yl]-2-fluoro-benzonitrile], the IC50 in the test with THP-1 (AML) cells (setting [1]) was less than 0.1 µM; with Kasumi-1 it was less than 100 nM.

In the case of `Cn1c(N2CCC(N)CC2)nc(-c2ccc(C#N)c(F)c2)c(-c2ccc3[nH]ncc3c2)c1=O` [Example 88, 4-[2-(4-aminopiperidin-1-yl)-5-(1H-indazol-5-yl)-1-methyl-6-oxopyrimidin-4-yl]-2-fluorobenzonitrile], the values for the IC50 with THP-1 (AML) cells (setting [1]) and in the test on Kasumi-1 were less than 0.1 µM and less than 100 nM, respectively.

For the molecule `COc1ccc(-c2c(-c3ccc(C#N)cc3)nc(N3CCC(N)CC3)n(C)c2=O)cc1F` [Example 5], the IC50 was less than 0.1 µM in the test with THP-1 (AML) cells (read-out: THP-1 IC50 (μM)) and less than 100 nM in the test on Kasumi-1.

On to `Cn1c(N2CCC(N)CC2)nc(-c2ccc(C#N)c(F)c2)c(-c2ccc(OCCO)cc2)c1=O` [Example 96, 4-[2-(4-aminopiperidin-1-yl)-5-[4-(2-hydroxyethoxy)phenyl]-1-methyl-6-oxopyrimidin-4-yl]-2-fluorobenzonitrile], for which the IC50 against full-length human LSD1 was less than 100 nM; in the test with THP-1 (AML) cells (setting [1]), less than 0.1 µM.

For the molecule `Cn1c(N2CCC(N)CC2)nc(-c2ccc(C#N)c(F)c2)c(-c2cnn(CC(F)(F)F)c2)c1=O` [Example 34, 4-{2-(4-amino-piperidin-1-yl)-1-methyl-6-oxo-5-[1-(2,2,2-trifluoro-ethyl)-1H-pyrazol-4-yl]-1,6-dihydro-pyrimidin-4-yl}-2-fluoro-benzonitrile], the figures for the IC50 with THP-1 (AML) cells (setting [1]) and in the test on Kasumi-1 were less than 0.1 µM and less than 100 nM, respectively.

`COc1ccc(-c2c(-c3ccc(C#N)cc3)nc(N3CCC(N)CC3)n(C)c2=O)cn1` [Example 3, 4-[2-(4-amino-piperidin-1-yl)-5-(6-methoxy-pyridin-3-yl)-1-methyl-6-oxo-1,6-dihydro-pyrimidin-4-yl]-benzonitrile]: the IC50 in the test on THP-1 (AML) cells (setting [1]) was less than 0.1 µM; in the test with Kasumi-1, less than 100 nM.

With `Cn1cc2cc(-c3c(-c4ccc(C#N)c(F)c4)nc(N4CCCNCC4)n(C)c3=O)ccc2n1` [Example 66, 4-[2-[1,4]diazepan-1-yl-1-methyl-5-(2-methyl-2H-indazol-5-yl)-6-oxo-1,6-dihydro-pyrimidin-4-yl]-2-fluoro-benzonitrile], the IC50 is less than 0.1 µM with THP-1 (AML) cells (setting [1]) and less than 100 nM in the test on Kasumi-1.

With `COc1ccc(-c2c(-c3ccc(C#N)c(F)c3)nc(N3CCC(N)CC3)n(C)c2=O)cc1` [Example 6, 4-[2-(4-amino-piperidin-1-yl)-5-(4-methoxy-phenyl)-1-methyl-6-oxo-1,6-dihydro-pyrimidin-4-yl]-2-fluoro-benzonitrile], the IC50 in the test on THP-1 (AML) cells (setting [1]) is less than 0.1 µM; in the test with Kasumi-1, less than 100 nM.

Regarding `COCCOc1ccc(-c2c(-c3ccc(C#N)c(F)c3)nc(N3CCC(N)CC3)n(C)c2=O)cc1` [Example 98, 4-[2-(4-aminopiperidin-1-yl)-5-[4-(2-methoxyethoxy)phenyl]-1-methyl-6-oxopyrimidin-4-yl]-2-fluorobenzonitrile], the IC50 in the test with THP-1 (AML) cells (setting [1]) was less than 0.1 µM.

Consider `CNC1CCN(c2nc(-c3ccc(C#N)c(F)c3)c(-c3ccc(OC)nc3)c(=O)n2C)CC1` [Example 58, 2-fluoro-4-[5-(6-methoxy-pyridin-3-yl)-1-methyl-2-(4-methylamino-piperidin-1-yl)-6-oxo-1,6-dihydro-pyrimidin-4-yl]-benzonitrile], for which the IC50 in the test with THP-1 (AML) cells (setting [1]) is less than 0.1 µM.

Turning to `COc1ccc(-c2c(-c3ccc(C#N)c(F)c3)nc(N3CCC[C@H](N)C3)n(C)c2=O)cc1` [Example 31, 4-[2-((3S)-3-amino-piperidin-1-yl)-5-(4-methoxy-phenyl)-1-methyl-6-oxo-1,6-dihydro-pyrimidin-4-yl]-2-fluoro-benzonitrile], in the test with THP-1 (AML) cells (setting [1]), the IC50 is less than 0.1 µM.

`CN(C)c1ccc(-c2c(-c3ccc(C#N)c(F)c3)nc(N3CCC(N)CC3)n(C)c2=O)cn1` [Example 57, 4-[2-(4-amino-piperidin-1-yl)-5-(6-dimethylamino-pyridin-3-yl)-1-methyl-6-oxo-1,6-dihydro-pyrimidin-4-yl]-2-fluoro-benzonitrile]: in the test with THP-1 (AML) cells (setting [1]), the IC50 was less than 0.1 µM.

As for `COCc1ccc(-c2c(-c3ccc(C#N)c(F)c3)nc(N3CCC(N)CC3)n(C)c2=O)cc1` [Example 107, 4-[2-(4-aminopiperidin-1-yl)-5-[4-(methoxymethyl)phenyl]-1-methyl-6-oxopyrimidin-4-yl]-2-fluorobenzonitrile], in the test on THP-1 (AML) cells (setting [1]), the IC50 was less than 0.1 µM.

Turning to `CN(C)C1CCN(c2nc(-c3ccc(C#N)c(F)c3)c(-c3ccc4c(cnn4C)c3)c(=O)n2C)CC1` [Example 72, 4-[2-(4-dimethylamino-piperidin-1-yl)-1-methyl-5-(1-methyl-1H-indazol-5-yl)-6-oxo-1,6-dihydro-pyrimidin-4-yl]-2-fluoro-benzonitrile], the IC50 with THP-1 (AML) cells (setting [1]) was less than 0.1 µM.

On to `CCOc1ccc(-c2c(-c3ccc(C#N)c(F)c3)nc(N3CCC(N)CC3)n(C)c2=O)cn1` [Example 94, 4-[2-(4-aminopiperidin-1-yl)-5-(6-ethoxypyridin-3-yl)-1-methyl-6-oxopyrimidin-4-yl]-2-fluorobenzonitrile], for which, in the test on THP-1 (AML) cells (setting [1]), the IC50 is less than 0.1 µM.

For the molecule `COc1ccc(-c2c(-c3ccc(C#N)c(F)c3)nc(NC[C@@H]3CCNC3)n(C)c2=O)cc1` [Example 52, 2-luoro-4-{5-(4-methoxy-phenyl)-1-methyl-6-oxo-2-[(3R)-(pyrrolidin-3-ylmethyl)-amino]-1,6-dihydro-pyrimidin-4-yl}-benzonitrile], in the test with THP-1 (AML) cells (setting [1]), the IC50 was in the range of 0.1 to 1 µM.

For `COc1ccc(-c2c(-c3ccc(C#N)c(F)c3)nc(N3CCC(N)CC3)[nH]c2=O)cc1` [Example 122, 4-[2-(4-amino-piperidin-1-yl)-5-(4-methoxy-phenyl)-6-oxo-1,6-dihydro-pyrimidin-4-yl]-2-fluoro-benzonitrile], the IC50 with THP-1 (AML) cells (setting [1]) is less than 0.1 µM.

On to `Cn1cc2cc(-c3c(-c4ccc(C#N)cc4)nc(N4CCC(N)CC4)n(C)c3=O)ccc2n1` [Example 24, 4-[2-(4-aminopiperidyl)-1-methyl-5-(2-methyl(2H-indazol-5-yl))-6-oxohydropyrimidin-4-yl]benzenecarbonitrile], for which the IC50 in the test with THP-1 (AML) cells (setting [1]) was less than 0.1 µM; in the test with Kasumi-1, less than 100 nM.

What is called IC50 is the concentration that inhibits the measured activity by half.
